Where a chain is given by its changes, count along the chain named. “And” between values parts separate entries of the source, which are not always exact repeats. Identical values can stand only once.
Assays:
Assay in all cases: filter binding assay of [14C] N-AS to COX2
Conditions in all cases: replicates
COX2 N181A = target: T1, COX2 N181A (Homo sapiens, UniProt P35354, N181A)
T1 construct: His (N); made in house
T1 sequence (P35354 18-604 N181A): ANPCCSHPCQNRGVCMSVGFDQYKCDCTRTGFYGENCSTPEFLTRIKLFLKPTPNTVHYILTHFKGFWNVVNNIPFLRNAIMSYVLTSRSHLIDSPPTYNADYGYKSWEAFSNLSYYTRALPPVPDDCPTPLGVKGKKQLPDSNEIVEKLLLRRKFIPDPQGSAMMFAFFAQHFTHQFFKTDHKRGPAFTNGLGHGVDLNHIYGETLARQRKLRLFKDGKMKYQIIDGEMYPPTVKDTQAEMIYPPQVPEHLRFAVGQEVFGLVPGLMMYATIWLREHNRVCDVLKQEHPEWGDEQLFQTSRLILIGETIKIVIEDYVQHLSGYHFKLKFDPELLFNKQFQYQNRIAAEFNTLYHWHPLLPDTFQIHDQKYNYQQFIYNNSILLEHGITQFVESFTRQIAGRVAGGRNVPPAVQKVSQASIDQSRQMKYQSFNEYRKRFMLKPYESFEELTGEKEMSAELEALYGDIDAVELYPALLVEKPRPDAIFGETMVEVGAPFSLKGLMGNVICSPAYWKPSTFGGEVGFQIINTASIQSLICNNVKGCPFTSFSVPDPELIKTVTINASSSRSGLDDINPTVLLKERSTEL
Excerpt: (§1) Single point mutations in SphK1 (R56A, R57A, R24A, R185A, D178A, and F192A) and COX2 (S565A, N181A, T564A, and S567A) were generated using the In-Fusion Cloning Kits (Clontech) and ORF cDNA expression plasmids of human SphK1 and COX2 gene (Sino Biological Inc, HG15679-NH and HG12036-NH), according to the manufacturer’s instructions. The forward and reverse primers described in Supplementary Table 4. The SphK1 WT, SphK1 mutants, COX2 WT, and COX2 mutant plasmids were transformed in the One shot TOP 10 competent cell (Invitrogen). The bacteria were grown in Luria-Bertani (LB, Invitrogen) plates supplemented with 50 μg ml^−1 kanamycin (Sigma-Aldrich) at 37 °C. The bacterial cell pellets were resuspended in lysis buffer containing 20 mM sodium phosphate (GE Healthcare), 500 mM NaCl (GE Healthcare), 20 mM imidazole (pH 7.4) (GE Healthcare), 0.2 mg ml^−1 lysozyme (Sigma-Aldrich), 20 μg ml^−1 DNase I (Roche), 1 mM MgCl2 (Sigma-Aldrich), and 1 mM PMSF (Sigma-Aldrich) before being lysed by sonication and clarified by centrifugation at 15,493×g for 10 min. Proteins were purified from the soluble fraction using His-Spin Trap columns (GE Healthcare) and the binding and acetylation assays were performed.
(§2) Briefly, SphK1 WT and mutant enzymes (1 mU) were resuspended in 100 μl reaction buffer (20 mM HEPES; pH 7.4, 50 mM NaCl, 10 mM MgCl2, 1 mM EGTA, 0.02% Triton-X100, and 100 μM sphingosine, all from Sigma-Aldrich). […] Briefly, COX2 WT and mutant enzymes (1 mU) were resuspended in 100 μl reaction buffer (20 mM HEPES; pH 7.4, 50 mM NaCl, 10 mM MgCl2, 1 mM EGTA, and 0.02% Triton-X100, all from Sigma-Aldrich). Reactions were initiated by adding [^14C] N-AS (1–200 μM (0.1–20 μCi), ARC UK Ltd, ARC-1024) and incubated at 37 °C for 1 h. The reactions were terminated by adding 100 μl of ice-cold reaction buffer containing 5 mM cold N-AS and immediately filtered through P30 filtermat (Perkin-Elmer), followed by five washes.
(§3) The binding velocity was plotted and the Kcat and KM values were calculated from the Michaelis-Menten analysis using the Sigma-plot program (ver 10.0, Systat software Inc.).

COX2 S567A = target: T2, COX2 S567A (Homo sapiens, UniProt P35354, S567A)
T2 construct: His (N); made in house
T2 sequence (P35354 18-604 S567A): T1 sequence (P35354 18-604 N181A) with A164N, S550A
Excerpt: as §1, §2, §3

COX2 T564A = target: T3, COX2 T564A (Homo sapiens, UniProt P35354, T564A)
T3 construct: His (N); made in house
T3 sequence (P35354 18-604 T564A): T1 sequence (P35354 18-604 N181A) with A164N, T547A
Excerpt: as §1, §2, §3

Q: How did the “binding velocity (Vbinding)” value (COX2 N181A; 1 uM) turn out when `CCCCCCCCCCCCC/C=C/[C@@H](O)[C@H](CO)NC(C)=O` [N-AS, N-((2S,3R,E)-1,3-Dihydroxyoctadec-4-en-2-yl)acetamide] was run?
A: 0.642 nM/min and 0.892 nM/min and 0.879 nM/min

Q: What about the “binding velocity (Vbinding)” value (COX2 N181A; 5 uM) of the same compound?
A: 7.037 nM/min and 14.518 nM/min and 5.980 nM/min

Q: What about the “binding velocity (Vbinding)” value (COX2 N181A; 10 uM) of the same compound?
A: 11.465 nM/min and 12.134 nM/min and 6.758 nM/min

Q: And the “binding velocity (Vbinding)” value (COX2 N181A; 20 uM)?
A: 15.248 nM/min and 14.109 nM/min and 13.356 nM/min

Q: What about the “binding velocity (Vbinding)” value (COX2 N181A; 100 uM) of the same compound?
A: 24.771 nM/min and 29.019 nM/min and 25.078 nM/min

Q: And the “binding velocity (Vbinding)” value (COX2 N181A; 200 uM)?
A: 41.872 nM/min and 40.849 nM/min and 37.213 nM/min

Q: And the “binding velocity (Vbinding)” value (COX2 S567A; 0.2 uM)?
A: 0.844 nM/min and 0.872 nM/min and 0.519 nM/min

Q: What about the “binding velocity (Vbinding)” value (COX2 S567A; 1 uM) of the same compound?
A: 1.046 nM/min

Q: And the “binding velocity (Vbinding)” value (COX2 T564A; 1 uM)?
A: 0.251 nM/min and 0.379 nM/min and 0.622 nM/min

Q: What about the “binding velocity (Vbinding)” value (COX2 T564A; 5 uM) of the same compound?
A: 7.230 nM/min and 6.808 nM/min and 11.168 nM/min

Q: What about the “binding velocity (Vbinding)” value (COX2 T564A; 10 uM) of the same compound?
A: 7.378 nM/min and 8.069 nM/min and 9.338 nM/min

Q: And the “binding velocity (Vbinding)” value (COX2 T564A; 20 uM)?
A: 12.382 nM/min and 16.697 nM/min and 16.993 nM/min

Q: And the “binding velocity (Vbinding)” value (COX2 T564A; 100 uM)?
A: 28.376 nM/min and 29.582 nM/min and 24.951 nM/min

Q: What about the “binding velocity (Vbinding)” value (COX2 T564A; 200 uM) of the same compound?
A: 37.587 nM/min and 41.759 nM/min and 47.017 nM/min

Reference: publication PMC7217877, “N-AS-triggered SPMs are direct regulators of microglia in a model of Alzheimer’s disease” (Nature Communications, 2020)
